The values that follow are results of earlier work, collected in US7291352B2 (HerbalScience LLC, priority 2001, dated 2007).

This data set relates to gamma-aminobutyric acid (GABA) receptor uptake. Conditions: in micromolar concentrations.

`CN1CCC=C(C(=O)O)C1` [arecaidine]: the “inhibition of GABA receptor uptake” value is given as “inhibit”. As to `O=C(O)C1=CCCNC1` [guvacine], the “inhibition of GABA receptor uptake” value is “inhibit”.
